Values of other authors, collected in EP1048712A1, “A process of treating fabrics with a laundry detergent additive tablet” (THE PROCTER & GAMBLE COMPANY, priority 1999, dated 2000).

Settings: 25°C

Row | Molecule | base hydrolysis rates (kOH) [M⁻¹ s⁻¹]
1 | N#CS [NCS-] | 0.0005
2 | CC(=O)O [acetate] | 0.00096
3 | O=CO [formate] | 0.00058
4 | oxalate | 0.00025
